According to patent publication US6495550B2, “Pyridine-substituted benzanilides as potassium ion channel openers” (ICAgen, Inc., priority 1999, dated 2002):

Row | Structure (SMILES) | melting point [°C]
1 | O=C(Nc1ccc(F)nc1)c1cnc(F)c(F)c1 [Compound 15, 5,6-Difluoro-N-(6-fluoro-pyridin-3-yl)-nicotinamide] | 135 to 137
2 | O=C(Nc1ccc(Cl)nc1)c1cc2cc(Cl)ccc2o1 [Compound 19, 5-Chloro-benzofuran-2-carboxylic acid (6-chloro-pyridin-3-yl)-amide] | 222 to 223
3 | O=C(Nc1ccc(Cl)nc1)c1cccc(Cl)c1 [Compound 5, 3-Chloro-N-(6-chloro-pyridin-3-yl)-benzamide] | 153 to 154
4 | O=C(Nc1ccc(Cl)nc1)c1cc2cc(F)ccc2[nH]1 [Compound 17, 5-Fluoro-1 H-indole-2-carboxylic acid (6-chloro-pyridin-3-yl)-amide] | 290
5 | O=C(Nc1ccc(Cl)nc1)c1ccc(Cl)c(Cl)c1 [Compound 2, 3,4-Dichloro-N-(6-chloro-pyridin-3-yl)-benzamide] | 188 to 189
6 | O=C(Nc1ccc(Cl)nc1)c1cc2cc(Cl)ccc2[nH]1 [Compound 18, 5-Chloro-1 H-indole-2-carboxylic acid (6-chloro-pyridin-3-yl)-amide] | 296
7 | O=C(Nc1ccc(Cl)nc1)c1cccc(C(F)(F)F)c1 [Compound 10, N-(6-Chloro-pyridin-3-yl)-3-(trifluoromethyl)-benzamide] | 169 to 170
8 | Cc1cc(C(=O)Nc2ccc(Cl)nc2)ccc1[N+](=O)[O-] [Compound 16, N-(6-Chloro-pyridin-3-yl)-3-methyl-4-nitro-benzamide] | 192 to 193
9 | O=C(Nc1ccc(Cl)nc1)c1ccc(Cl)o1 [Compound 21, 5-Chloro-furan-2-carboxylic acid (6-chloro-pyridin-3-yl)-amide] | 143 to 144
10 | Cc1c(C(=O)Nc2ccc(Cl)nc2)[nH]c2ccccc12 [Compound 23, 3-Methyl-1 H-indole-2-carboxylic acid (6-chloro-pyridin-3-yl)-amide] | 184 to 185
11 | O=C(Nc1ccc(Cl)nc1)c1cccc(F)c1 [Compound 9, N-(6-Chloro-pyridin-3-yl)-3-fluoro-benzamide] | 160
12 | O=C(Nc1ccc(Cl)nc1)c1ccc(Cl)s1 [Compound 20, 5-Chloro-thiophene-2-carboxylic acid (6-chloro-pyridin-3-yl)-amide] | 215 to 216
13 | O=C(Nc1ccc(Cl)nc1)c1ccc(C(F)(F)F)c(F)c1 [Compound 12, N-(6-Chloro-pyridin-3-yl)-3-fluoro-4-trifluoromethyl-benzamide] | 182
14 | O=C(Nc1ccc(Cl)nc1)c1cccc(C(F)(F)F)c1 [Compound 3, N-(6-Chloro-pyridin-3-yl)-3-trifluoromethyl-benzamide] | 139 to 140
15 | O=C(Nc1ccc(Cl)nc1)c1ccc(-c2ccccc2)cc1 [Compound 6, Biphenyl-4-carboxylic acid (6-chloro-pyridin-3-yl)-amide] | 227 to 229
16 | O=C(Nc1ccc(Cl)nc1)c1ccc(Cl)cc1 [Compound 14, N-(6-Chloro-pyridin-3-yl)-4-chloro-benzamide] | 197 to 199
17 | O=C(Nc1ccc(Cl)nc1)c1ccc(Cl)nc1 [Compound 7, 6-Chloro-N-(6-chloro-pyridin-3-yl)-nicotinamide] | 228

Second part, the molecule after the results:

Row | melting point [°C] | Structure (SMILES)
18 | 193 | O=C(Nc1ccc(Cl)nc1)c1ccc([N+](=O)[O-])cc1 [Compound 42, N-(6-Chloro-pyridin-3-yl)-4-nitro-benzamide]
19 | 210 to 211 | O=C(Nc1ccc(Cl)nc1)c1ccc(NCc2ccccn2)c(F)c1 [Compound 33, N-(6-Chloro-pyridin-3-yl)-3-fluoro-4-[(pyridin-2-ylmethyl)-amino]-benzamide]
20 | 260 to 263 | O=C(Nc1ccc(Cl)nc1)c1cc2ccccc2[nH]1 [Compound 26, 1H-Indole-2-carboxylic acid (6-chloro-pyridin-3-yl)-amide]
21 | 258 to 260 | O=C(Nc1ccc(Cl)nc1)c1ccc(NC(=O)c2ccccn2)cc1 [Compound 35, Pyridine-2-carboxylic acid [4-(6-chloro-pyridin-3-ylcarbamoyl)-phenyl]-amide]
22 | 228 to 229 | O=C(Nc1ccc(Cl)nc1)c1ccc(N2CCOCC2)c(F)c1 [Compound 31, N-(6-Chloro-pyridin-3-yl)-3-fluoro-4-morpholin-4-yl-benzamide]
23 | 205 | O=C(Nc1ccc(Cl)nc1)c1ccc([N+](=O)[O-])c(F)c1 [Compound 37, N-(6-Chloro-pyridin-3-yl)-3-fluoro-4-nitro-benzamide]
24 | 193 | Nc1ccc(C(=O)Nc2ccc(Cl)nc2)cc1F [Compound 41, 4-Amino-N-(6-chloro-pyridin-3-yl)-3-fluoro-benzamide]
25 | 270 | CCc1ccc2[nH]c(C(=O)Nc3ccc(Cl)nc3)cc2c1 [Compound 24, 5-Ethyl-1 H-indole-2-carboxylic acid (6-chloro-pyridin-3-yl)-amide]
26 | 163 to 164 | O=C(Nc1ccc(Cl)nc1)c1ccccc1 [Compound 25, N-(6-Chloro-pyridin-3-yl)-benzamide]
27 | 170 to 171 | CN(C)c1ccc(C(=O)Nc2ccc(Cl)nc2)cc1F [Compound 34, N-(6-Chloro-pyridin-3-yl)-4-dimethylamino-3-fluoro-benzamide]
